Patent US20210300940A1 (Merck Patent GmbH, priority 2018, published 2021)

How the values were obtained:
[1] = molecular target: T1, TLR7 (Homo sapiens, UniProt Q9NYK1); assay: HEK/293 TLR7 Cell Assay; assay type: cell-based; conditions: TLR7/NFKb HEK cells, R848 agonist 10 uM final concentration, Steady-Glo readout; read-out: TLR7 potency
T1 construct: expressed in transfected cells; host or cells: HEK/293 cells carrying TLR7 and an NF-kB luciferase reporter
T1 sequence (Q9NYK1 27-1049): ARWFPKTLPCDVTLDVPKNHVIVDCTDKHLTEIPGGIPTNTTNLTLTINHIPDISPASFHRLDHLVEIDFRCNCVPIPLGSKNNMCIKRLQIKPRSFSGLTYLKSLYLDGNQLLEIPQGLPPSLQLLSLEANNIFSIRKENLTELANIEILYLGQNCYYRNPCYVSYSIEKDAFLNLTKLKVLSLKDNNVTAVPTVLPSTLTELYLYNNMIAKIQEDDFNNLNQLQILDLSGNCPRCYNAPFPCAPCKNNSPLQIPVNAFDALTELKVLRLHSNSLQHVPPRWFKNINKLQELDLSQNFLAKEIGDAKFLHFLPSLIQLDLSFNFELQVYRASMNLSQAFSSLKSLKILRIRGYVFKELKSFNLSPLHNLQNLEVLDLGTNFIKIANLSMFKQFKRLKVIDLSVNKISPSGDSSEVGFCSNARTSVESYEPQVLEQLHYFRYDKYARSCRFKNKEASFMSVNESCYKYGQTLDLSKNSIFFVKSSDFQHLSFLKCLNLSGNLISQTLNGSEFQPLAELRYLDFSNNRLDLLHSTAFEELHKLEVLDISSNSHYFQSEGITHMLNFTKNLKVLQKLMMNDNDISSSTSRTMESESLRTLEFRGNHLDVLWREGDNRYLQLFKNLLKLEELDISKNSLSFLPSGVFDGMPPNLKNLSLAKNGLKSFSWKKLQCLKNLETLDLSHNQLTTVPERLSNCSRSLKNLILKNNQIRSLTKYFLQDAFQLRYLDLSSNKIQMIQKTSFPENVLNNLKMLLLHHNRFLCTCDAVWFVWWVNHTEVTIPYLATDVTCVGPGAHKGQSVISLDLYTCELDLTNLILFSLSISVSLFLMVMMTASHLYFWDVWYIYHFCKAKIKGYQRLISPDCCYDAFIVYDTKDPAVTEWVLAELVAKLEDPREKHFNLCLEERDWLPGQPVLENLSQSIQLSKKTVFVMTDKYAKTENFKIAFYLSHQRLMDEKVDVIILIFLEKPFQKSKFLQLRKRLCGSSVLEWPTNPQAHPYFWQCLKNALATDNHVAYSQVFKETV
Summary of the method: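 TLR7/NF-κB reporter HEK293 cells, 5000/well, cultured 24 h, then preincubated 30 min with compound before R848 agonist (10 uM final). After 5 h stimulation, Steady-Glo luciferase luminescence read.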

[2] = molecular target: T2, TLR8 (Homo sapiens, UniProt Q9NR97); assay: HEK/293 TLR8 Cell Assay; assay type: cell-based; conditions: HEK cells, R848 agonist 30 uM final concentration, Steady-Glo readout; read-out: TLR8 potency
T2 construct: expressed in transfected cells; host or cells: HEK/293 reporter cells (NF-kB luciferase)
T2 sequence (Q9NR97 27-1041): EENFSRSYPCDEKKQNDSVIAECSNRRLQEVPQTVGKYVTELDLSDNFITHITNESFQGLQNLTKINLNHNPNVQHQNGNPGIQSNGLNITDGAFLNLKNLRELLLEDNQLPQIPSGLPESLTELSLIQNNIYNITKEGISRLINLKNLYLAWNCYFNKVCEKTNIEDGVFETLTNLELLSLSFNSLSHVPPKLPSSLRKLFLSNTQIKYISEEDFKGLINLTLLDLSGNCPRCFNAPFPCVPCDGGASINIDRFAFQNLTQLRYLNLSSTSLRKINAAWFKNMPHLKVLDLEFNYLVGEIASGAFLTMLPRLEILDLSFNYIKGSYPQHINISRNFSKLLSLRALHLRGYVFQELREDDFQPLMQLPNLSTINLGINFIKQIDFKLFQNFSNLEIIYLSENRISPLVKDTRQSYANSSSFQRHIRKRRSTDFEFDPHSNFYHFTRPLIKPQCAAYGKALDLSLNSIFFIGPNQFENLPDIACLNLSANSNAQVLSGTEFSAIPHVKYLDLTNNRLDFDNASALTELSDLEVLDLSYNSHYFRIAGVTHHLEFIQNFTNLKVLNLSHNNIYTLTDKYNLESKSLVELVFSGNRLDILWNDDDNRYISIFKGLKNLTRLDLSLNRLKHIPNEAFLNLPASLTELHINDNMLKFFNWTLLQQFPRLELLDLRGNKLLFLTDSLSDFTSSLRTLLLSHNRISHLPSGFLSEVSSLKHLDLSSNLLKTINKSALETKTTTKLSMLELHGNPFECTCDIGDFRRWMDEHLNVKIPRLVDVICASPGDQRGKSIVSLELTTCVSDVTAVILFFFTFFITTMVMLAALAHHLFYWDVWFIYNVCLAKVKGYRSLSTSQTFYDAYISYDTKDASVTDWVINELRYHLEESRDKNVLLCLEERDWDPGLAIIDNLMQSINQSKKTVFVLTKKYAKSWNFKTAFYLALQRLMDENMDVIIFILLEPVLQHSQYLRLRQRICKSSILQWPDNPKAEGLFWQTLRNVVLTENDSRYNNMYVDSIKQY

Structure (SMILES)	IC50 [1]	IC50 [2]
CN1CCC(O)(CC(=O)N[C@@H]2C[C@H](C(F)(F)F)CN(c3ccc(C(F)(F)F)c4ncccc34)C2)CC1 [Example 67, 2-(4-hydroxy-1-methylpiperidin-4-yl)-N-[(3R,5S)-5-(trifluoromethyl)-1-[8-(trifluoromethyl)quinolin-5-yl]piperidin-3-yl]acetamide]	< 75 nM	< 75 nM
C[C@H]1C[C@@H](NC(=O)C[C@@H](O)CN(C)C)CN(c2ccc(C#N)c3nccnc23)C1 [Example 211, (3R)—N-[(3R,5S)-1-(8-cyanoquinoxalin-5-yl)-5-methylpiperidin-3-yl]-4-(dimethylamino)-3-hydroxybutanamide]	< 75 nM	< 75 nM
N[C@H](CO)C(=O)N[C@@H]1C[C@H](C(F)(F)F)CN(c2ccc(C(F)(F)F)c3ncccc23)C1 [Example 172, (R)-2-Amino-3-hydroxy-N-[(3R,5S)-5-trifluoromethyl-1-(8-trifluoromethyl-quinolin-5-yl)-piperidin-3-yl]-propionamide]	75 to 150 nM	> 150 nM
C[C@@H]1CN(c2ccc(C#N)c3ncncc23)C[C@H](CNC(=O)[C@]2(F)CCNC2)O1 (single isomer, unassigned) [Example 345]	< 75 nM	< 75 nM
C[C@H]1C[C@@H](NC(=O)CC2CCN(C(=O)NC(C)(C)CO)CC2F)CN(c2cnc(C#N)c3ncccc23)C1 (stereo partly drawn) [Example 149, 4-{[(3R,5S)-1-(8-Cyano-[1,7]naphthyridin-5-yl)-5-methyl-piperidin-3-ylcarbamoyl]-methyl}-3-fluoro-piperidine-1-carboxylic acid (2-hydroxy-1,1-dimethyl-ethyl)-amide]	> 150 nM	75 to 150 nM
C[C@H](O)CNC(=O)[C@H]1CN(c2ccc(C#N)c3nccnc23)C[C@@H](C(F)(F)F)O1 (single isomer, unassigned) [Example 286]	> 150 nM	> 150 nM
C[C@@H]1CN(c2ccc(C#N)c3nccnc23)C[C@H](C(=O)NC2CCNC3(CCC3)C2)O1 (stereo partly drawn) [Example 291, (2R,6R)-4-(8-Cyano-quinoxalin-5-yl)-6-methyl-morpholine-2-carboxylic acid (5-aza-spiro[3.5]non-8-yl)-amide]	< 75 nM	< 75 nM
Cc1c(F)cc(N2C[C@@H](C)C[C@@H](NC(=O)CC3C4CC3CN(C)C4)C2)c2cccnc12 (stereo partly drawn) [Example 112, N-[(3R,5S)-1-(7-Fluoro-8-methyl-quinolin-5-yl)-5-methyl-piperidin-3-yl]-2-(3-methyl-3-aza-bicyclo[3.1.1]hept-6-yl)-acetamide]	< 75 nM	< 75 nM
C[C@@H]1CN(c2ccc(C#N)c3nccnc23)C[C@H](C(=O)NC2CCNCC2(F)F)O1 (stereo partly drawn) [Example 289, (2R,6R)-4-(8-Cyano-quinoxalin-5-yl)-6-methyl-morpholine-2-carboxylic acid (3,3-difluoro-piperidin-4-yl)-amide]	< 75 nM	< 75 nM
C[C@H]1C[C@@H](NC(=O)CC2(N)CC2)CN(c2ccc(C#N)c3nccnc23)C1 [Example 120, 2-(1-aminocyclopropyl)-N-[(3R,5S)-1-(8-cyanoquinoxalin-5-yl)-5-methylpiperidin-3-yl]acetamide]	< 75 nM	< 75 nM
C[C@H]1C[C@@H](NCCCS(N)(=O)=O)CN(c2ccc(C(F)(F)F)c3ncccc23)C1 [Example 39, 3-[(3R,5S)-5-Methyl-1-(8-trifluoromethyl-quinolin-5-yl)-piperidin-3-ylamino]-propane-1-sulfonic acid amide]	< 75 nM	< 75 nM
